Active and inactive are the calls of the source. The calls are words filed in the database; no cut-off is given here.
Tested on: iNKT
Assay: Stimulation of human iNKT cell proliferation
Type: functional, cell-based

SMILES: CCCCCCCCCCCCCCCCCCCCCCCCCC(=O)N[C@@H](/C=N/O[C@H]1O[C@H](CO)[C@H](O)[C@H](O)[C@H]1O)[C@H](O)[C@H](O)CCCCCCCCCCCCCC
- Activity: Active

SMILES: CCCCCCCCCCCCCCCCCCCCCCCCCC(=O)N[C@@H](/C=N/O[C@@H]1O[C@H](CO)[C@H](O)[C@H](O)[C@H]1O)[C@H](O)[C@H](O)CCCCCCCCCCCCCC
- Activity: Active

From ChEMBL document CHEMBL1177796, “Efficient synthesis of galactosylceramide analogues for iNKT cell stimulation” (Bioorg Med Chem Lett, 2010)
